Test results: patent publication US20260284018A1, “DUAL INHIBITORS OF DYRK1A AND 5-HT2 FOR TREATING A BRAIN DISORDER” (THE REGENTS OF THE UNIVERSITY OF CALIFORNIA, priority 2023, published 2026)

Assays:
TIE2 = molecular target: T1, TIE2 (Homo sapiens, UniProt Q02763); settings: 10 μM; cited from earlier work
T1 construct: purchased Eurofins DiscoverX KINOMEscan scanEDGE

DCAMKL1 = molecular target: T2, DCAMKL1 (Homo sapiens, UniProt O15075); experiment: KINOMEscan scanEDGE; type: binding; settings: read-out: Percent Control
T2 construct: purchased Eurofins DiscoverX
T2 sequence (O15075 whole entry): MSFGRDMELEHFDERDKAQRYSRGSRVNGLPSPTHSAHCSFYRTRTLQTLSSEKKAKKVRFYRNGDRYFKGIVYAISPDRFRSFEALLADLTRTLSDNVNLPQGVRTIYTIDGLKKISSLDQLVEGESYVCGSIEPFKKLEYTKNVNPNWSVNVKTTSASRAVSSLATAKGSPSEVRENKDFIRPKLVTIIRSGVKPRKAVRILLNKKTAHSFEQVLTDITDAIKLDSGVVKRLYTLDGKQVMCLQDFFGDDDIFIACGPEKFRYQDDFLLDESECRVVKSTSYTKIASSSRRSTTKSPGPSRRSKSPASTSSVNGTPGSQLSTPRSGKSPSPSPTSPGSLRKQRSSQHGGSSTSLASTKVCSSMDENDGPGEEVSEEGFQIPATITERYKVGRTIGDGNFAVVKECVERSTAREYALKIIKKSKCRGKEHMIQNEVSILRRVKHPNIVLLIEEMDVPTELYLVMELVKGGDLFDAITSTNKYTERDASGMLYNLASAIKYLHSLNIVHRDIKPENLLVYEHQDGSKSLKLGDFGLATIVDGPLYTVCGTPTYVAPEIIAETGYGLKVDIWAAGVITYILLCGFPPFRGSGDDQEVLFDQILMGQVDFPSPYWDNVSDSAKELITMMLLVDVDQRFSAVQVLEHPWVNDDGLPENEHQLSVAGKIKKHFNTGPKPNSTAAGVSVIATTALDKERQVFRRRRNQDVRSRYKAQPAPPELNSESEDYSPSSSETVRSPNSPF
In short: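 Test compound is screened at 10 μM only, no dose-response, across 97 kinases. Each value gives remaining % activity relative to DMSO; lower indicates higher affinity.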

T1 sequence (Q02763 23-1124): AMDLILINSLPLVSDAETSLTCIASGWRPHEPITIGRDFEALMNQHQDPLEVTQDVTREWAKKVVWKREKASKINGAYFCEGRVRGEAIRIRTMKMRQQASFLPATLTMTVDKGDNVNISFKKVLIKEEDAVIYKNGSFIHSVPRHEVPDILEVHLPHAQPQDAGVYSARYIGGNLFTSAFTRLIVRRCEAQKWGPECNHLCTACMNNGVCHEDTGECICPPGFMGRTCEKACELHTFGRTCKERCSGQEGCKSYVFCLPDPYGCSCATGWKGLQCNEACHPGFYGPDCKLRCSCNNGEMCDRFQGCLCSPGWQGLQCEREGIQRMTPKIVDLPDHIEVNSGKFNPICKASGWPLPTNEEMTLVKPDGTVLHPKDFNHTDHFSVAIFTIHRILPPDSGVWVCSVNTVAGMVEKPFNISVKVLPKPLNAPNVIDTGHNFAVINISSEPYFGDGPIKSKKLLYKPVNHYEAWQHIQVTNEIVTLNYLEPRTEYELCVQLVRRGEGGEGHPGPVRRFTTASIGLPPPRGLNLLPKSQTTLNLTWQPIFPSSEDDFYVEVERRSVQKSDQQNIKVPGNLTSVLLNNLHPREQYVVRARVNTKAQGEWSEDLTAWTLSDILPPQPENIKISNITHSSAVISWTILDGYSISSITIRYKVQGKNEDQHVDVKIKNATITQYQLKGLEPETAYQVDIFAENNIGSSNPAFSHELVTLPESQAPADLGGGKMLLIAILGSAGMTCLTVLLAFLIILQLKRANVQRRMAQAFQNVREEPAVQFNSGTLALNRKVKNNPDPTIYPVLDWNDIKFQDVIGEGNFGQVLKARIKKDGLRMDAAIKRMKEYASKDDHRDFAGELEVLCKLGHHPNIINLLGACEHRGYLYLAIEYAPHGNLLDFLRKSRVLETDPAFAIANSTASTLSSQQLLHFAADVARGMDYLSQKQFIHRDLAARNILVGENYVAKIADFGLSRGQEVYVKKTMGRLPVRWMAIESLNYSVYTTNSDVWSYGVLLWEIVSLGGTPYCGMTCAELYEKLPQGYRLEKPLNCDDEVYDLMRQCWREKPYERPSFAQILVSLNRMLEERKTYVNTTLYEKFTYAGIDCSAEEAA

| SMILES | Percent Control (TIE2) [%] | remaining binding at 10 µM (DCAMKL1) [%] |
| --- | --- | --- |
| COc1ccc2c(c1)[nH]c1c(C)nccc12 [Harmine, harmine] | 94 |  |
| COc1ccc2c3ccnc(C)c3n(CCN(C)C)c2c1.O=C(O)/C=C/C(=O)O [HTW_A_8 fumarate, 2-(7-methoxy-1-methyl-9H-pyrido[3,4-b]indol-9-yl)-N,N-dimethylethan-1-amine Fumarate Salt (2:3)] |  | 98 |
